From US5593698A, “Suppression of proliferative response and induction of tolerance with polymorphic class II MHC allopeptides” (Autoimmune, Inc., priority 1993, dated 1997)

Test system: LEW rats
Experiment: Delayed Type Hypersensitivity (DTH) response after immunization with allopeptides
Assay type: in vivo, rat
Details: LEW rats immunized in foot pad with 12.5 μg of one fragment and CFA; FIG. 5
Experimental: 4. Delayed Type Hypersensitivity (DTH) Response: LEW rats, used as responders, were immunized subcutaneously in the foot pad with 100 μg of the mixture of four RT1.B^u (50 μg) and four RT1.D^u (50 μg) peptides in complete Freund's adjuvant (12.5 μg of each peptide). These animals were challenged subcutaneously 2 weeks later in one ear with 10 μg of the peptide mixture and in the other ear with freshly prepared and irradiated (3000 Rads) splenocytes (10×10^6) from WF (RT1^u), syngeneic LEW (RT1^1), or third party BN (RT1^n). The DTH responses were measured with micrometer caliper (Mitutoyo, Japan) by a blinded observer as the delta ear thickness before and 2 days after the challenge (inches ×10^-2). Experiments were performed using 5 animals in each study group. P values were calculated using the student t-test.
These experiments investigate whether, in addition to polymorphism, the native location of the allopeptide, β-pleat vs. α-helix, may be an important determinant of immunogenicity and tolerogenicity in vivo. The immunogenicity and tolerogenicity of the individual allopeptide fragments were investigated. LEW rats, used as responders, were immunized subcutaneously in the foot pad with 12.5 μg of one of the four RT1.D (1-25, 20-44, 39-64, and 60-84) and four RT1.B (1-25, 20-44, 39-64, and 68-92) allopeptide fragments and CFA. DTH responses were then determined for each of the peptide fragments. […] In FIG. 5, "RT1D mix" and "RT1B mix" refers to animals immunized with a mixture of all four allopeptides. In FIG. 5 solid bars represent immunization with cells, hatched bars represent immunization with peptides. Bars represent the change in ear thickness in […] (mean±SEM).

Substance: RT1.B2: RT1.B allopeptide fragment 20-44, β-pleat (GTQRIRNVIRYIYNREEYLRYDSDV)
- Immunogenicity of individual allopeptide fragments by DTH response: immunogenic

Substance: RT1.D2: RT1.D allopeptide fragment 20-44, β-pleat (GTNRVRLLARLIYNREEYARFDSDV)
- Immunogenicity of individual allopeptide fragments by DTH response: immunogenic

Substance: RT1.B1: RT1.B allopeptide fragment 1-25, β-pleat (QRLRRDFLVQFKPYCYFTNGTQRIR)
- Immunogenicity of individual allopeptide fragments by DTH response: immunogenic

Substance: RT1.D1: RT1.D allopeptide fragment 1-25, β-pleat (RDPTPRFLGYLKPECHFYNGTNRVR)
- Immunogenicity of individual allopeptide fragments by DTH response: immunogenic
